# Where two headings read alike, the source gives them in different places.
# Columns and labels:
# L. gasseri = test: MIC against commensal vaginal Lactobacillus strains; type: cell-based, Lactobacillus gasseri; conditions: for MIC: Lactobacillus gasseri
# Excerpt: (§1) N. gonorrhoeae pathogenesis greatly depends on colonization of the reproductive tract. One of the natural barriers of such colonization is an intact healthy microbiome. Species of lactobacilli present in the genitourinary tract play a significant role in hindering colonization by Neisseria(1).
# (§2) A healthy vaginal microbiome that is dominated by Lactobacillus spp. is less susceptible to N. gonorrhoeae infection and other sexually transmitted diseases (STDs). […] We tested the activity of azoles against important members of healthy vaginal microbiota that inhibit N. gonorrhoeae colonization.
# [1] = test system: commensal vaginal lactobacilli strains; test: MIC against all commensal vaginal Lactobacillus strains tested; type: cell-based, Lactobacillus spp.; conditions: all species/strains of Lactobacillus tested (Example 2); read-out: MIC
# Excerpt: as §1, §2
# L. crispatus = test: MIC against commensal vaginal Lactobacillus strains; type: cell-based, Lactobacillus crispatus; conditions: for MIC: Lactobacillus crispatus
# Excerpt: as §1, §2
# N. gonorrhoeae isolates = test: MIC against panel of N. gonorrhoeae clinical isolates; type: cell-based, Neisseria gonorrhoeae; conditions: for MIC50: read-out: MIC50; for MIC90: read-out: MIC90
# N. flavescens = test: MIC against Neisseria spp.; type: cell-based; conditions: N. flavescens (1 strain)
# Excerpt: (§3) Intrigued by the specificity and potent activity of azoles against N. gonorrhoeae, we evaluated the extent of the azoles' antibacterial activity against other Neisseria species (Table 8).
# N. mucosa = test: MIC against Neisseria spp.; type: cell-based; conditions: N. mucosa (1 strain)
# Excerpt: as §3
# N. lactamica = test: MIC against Neisseria spp.; type: cell-based; conditions: N. lactamica (1 strain)
# Excerpt: as §3
# N. meingitidis = test: MIC against Neisseria spp.; type: cell-based, Neisseria meningitidis; conditions: N. meingitidis (5 strains)
# L. jensenii = test: MIC against commensal vaginal Lactobacillus strains; type: cell-based, Lactobacillus jensenii; conditions: for MIC: Lactobacillus jensenii
# Excerpt: as §1, §2
# Escherichia coli = test: MIC against normal gut microbiota; type: cell-based; conditions: Escherichia coli (1 strain)
# Excerpt: (§4) Disrupting the intestinal microbiota using broad-spectrum antimicrobial therapy increases the susceptibility of hosts to C. difficile colonization.
# Lactobacillus brevis = test: MIC against normal gut microbiota; type: cell-based; conditions: Lactobacillus brevis (1 strain)
# Excerpt: as §4
# Bacteroides dorei = test: MIC against normal gut microbiota; type: cell-based; conditions: Bacteroides dorei (2 strains)
# Excerpt: as §4
# Lactobacillus rhamnosus = test: MIC against normal gut microbiota; type: cell-based; conditions: Lactobacillus rhamnosus (1 strain)
# Excerpt: as §4
# Enterococcus faecalis = test: MIC against normal gut microbiota; type: cell-based; conditions: Enterococcus faecalis (1 strain)
# Excerpt: as §4
# [2] = MIC against normal gut microbiota; type: cell-based
# Excerpt: as §4
# [3] = test system: Bifidobacterium angulatum; test: MIC against normal gut microbiota; type: cell-based; conditions: Bifidobacterium angulatum (1 strain)
# Excerpt: as §4
# Staphylococcus aureus = test: MIC against normal gut microbiota; type: cell-based; conditions: Staphylococcus aureus (1 strain)
# Excerpt: as §4
# Enterococcus faecium = test: MIC against normal gut microbiota; type: cell-based; conditions: Enterococcus faecium (1 strain)
# Excerpt: as §4
# Lactobacillus casei = test: MIC against normal gut microbiota; type: cell-based; conditions: Lactobacillus casei (1 strain)
# Excerpt: as §4
# [4] = test system: resistant N. gonorrhoeae isolates; test: MIC against resistant N. gonorrhoeae isolates by agar dilution; type: cell-based, Neisseria gonorrhoeae
# L. johnsonii = test: MIC against commensal vaginal Lactobacillus strains; type: cell-based, Lactobacillus johnsonii
# Excerpt: as §1, §2
# [5] = test system: intracellular N. gonorrhoeae FA1090 in endocervical cells (End1/E6E7); conditions: literature statement [1, 3, 5]; cited from earlier work
# N. gonorrhoeae = test: Post-antibiotic effect (PAE) against N. gonorrhoeae; type: cell-based, Neisseria gonorrhoeae; conditions: 1 h exposure at 10×MIC
# Excerpt: Determining the PAE of a new antimicrobial is an important step for dosing and has clinical importance.
# [6] = Neisseria gonorrhoeae, Table 1, 104 N. gonorrhoeae isolates
# [7] = Neisseria gonorrhoeae, Table 3, 103 N. gonorrhoeae isolates with different resistance profiles
compound,measurement,setting,value
CO/N=C(\C(=O)N[C@@H]1C(=O)N2C(C(=O)O)=C(CSc3nc(=O)c(=O)[nH]n3C)CS[C@H]12)c1csc(N)n1 [Ceftriaxone],MIC,L. gasseri; L. gasseri HM-407,≤ 0.5 µg/mL
same,MIC,L. gasseri; L. gasseri HM-642,2 µg/mL
same,MIC,L. gasseri; L. gasseri HM-644,1 µg/mL
same,MIC,L. gasseri; L. gasseri HM-647,1 µg/mL
same,MIC Range,"L. gasseri; Table 6, L. gasseri (4 strains)",≤1 µg/mL
same,MIC,[1],< 1 µg/mL
same,MIC,L. crispatus; L. crispatus HM-103,2 µg/mL
same,MIC,L. crispatus; L. crispatus HM-371,1 µg/mL
same,MIC,L. crispatus; L. crispatus HM-638,4 µg/mL
same,MIC Range,"L. crispatus; Table 6, L. crispatus (3 strains)",≤1 to 2 µg/mL
same,MIC50,N. gonorrhoeae isolates; [6],0.03 µg/mL
same,MIC90,N. gonorrhoeae isolates; [6],0.06 µg/mL
same,MIC50,N. gonorrhoeae isolates; [7],0.03 µg/mL
same,MIC90,N. gonorrhoeae isolates; [7],0.06 µg/mL
same,MIC,"N. gonorrhoeae isolates; Neisseria gonorrhoeae, 103 N. gonorrhoeae isolates, read-out: highest MIC value",2 µg/mL
same,MIC Range,"N. gonorrhoeae isolates; Table 1, 104 N. gonorrhoeae isolates",0.001 to 2 µg/mL
same,MIC Range,"N. gonorrhoeae isolates; Table 3, 103 N. gonorrhoeae isolates with different resistance profiles",0.001 to 2 µg/mL
same,MIC Range,N. flavescens,0.125 µg/mL
same,MIC Range,N. mucosa,0.125 µg/mL
same,MIC Range,N. lactamica,0.125 µg/mL
same,MIC Range,N. meingitidis,0.004 to 0.008 µg/mL
same,MIC,L. jensenii; L. jensenii HM-105,≤ 0.5 µg/mL
same,MIC,L. jensenii; L. jensenii HM-372,≤ 0.5 µg/mL
same,MIC,L. jensenii; L. jensenii HM-374,1 µg/mL
same,MIC,L. jensenii; L. jensenii HM-639,≤ 0.5 µg/mL
same,MIC,L. jensenii; L. jensenii HM-640,≤ 0.5 µg/mL
same,MIC,L. jensenii; L. jensenii HM-645,≤ 0.5 µg/mL
same,MIC,L. jensenii; L. jensenii HM-646,≤ 0.5 µg/mL
same,MIC Range,"L. jensenii; Table 6, L. jensenii (7 strains)",≤1 to 2 µg/mL
same,MIC Range,Escherichia coli,0.03 µg/mL
same,MIC Range,Lactobacillus brevis,0.5 µg/mL
same,MIC Range,Bacteroides dorei,4 to 16 µg/mL
same,MIC Range,Lactobacillus rhamnosus,16 µg/mL
same,MIC Range,Enterococcus faecalis,8 µg/mL
same,MIC Range,[2]; Bacteroides adolescentis (2 strains),0.125 µg/mL
same,MIC Range,[2]; Bacteroides breve (2 strains),1 to 4 µg/mL
same,MIC Range,[2]; Bacteroides longum (2 strains),4 µg/mL
same,MIC Range,[3],0.125 µg/mL
same,MIC Range,Staphylococcus aureus,2 µg/mL
same,MIC Range,Enterococcus faecium,8 µg/mL
same,MIC Range,Lactobacillus casei,16 µg/mL
same,MIC,"[4]; strain CDC-174, agar dilution",0.25 µg/mL
same,MIC,"[4]; strain CDC-179, agar dilution",0.015 µg/mL
same,MIC,"[4]; strain CDC-181, agar dilution",0.06 µg/mL
same,MIC,"[4]; strain WHO-L, agar dilution",0.5 µg/mL
same,MIC,"[4]; strain WHO-X, agar dilution",2 µg/mL
same,MIC,"[4]; strain WHO-Y, agar dilution",1 µg/mL
same,MIC,"[4]; strain WHO-Z, agar dilution",0.5 µg/mL
same,MIC,"L. johnsonii; Lactobacillus johnsonii, L. johnsonii HM-643",2 µg/mL
same,MIC Range,"L. johnsonii; Table 6, L. johsonii (2 strains)",≤1 µg/mL
same,ability to clear intracellular N. gonorrhoeae,[5],unable to clear intracellular N. gonorrhoeae
same,PAE,N. gonorrhoeae; strain FA 1090,4 h
same,PAE,N. gonorrhoeae; strain WHO P,8 h
same,PAE,N. gonorrhoeae; strain WHO Y,6 h
